Source: patent publication US20060074035A1, “Dinucleotide inhibitors of de novo RNA polymerases for treatment or prevention of viral infections” (priority 2002, published 2006)

Key:
Type in all cases: biochemical
[1] = biological target: T1, HCV NS5B (Hepatitis C virus genotype 1a, UniProt P27958); test: HCV NS5B de novo initiation assay, GTP as initiation nucleotide
T1 construct: a particularly preferred RNA polymerases is the HCV NS5B polypeptide
Text: (§1) In vitro RNA-dependent RNA polymerase assay was used to evaluate activity of dinucleotide compounds as inhibitors of HCV polymerase. Examples of such compounds are illustrated below as compounds A and B in.

[2] = biological target: T2, HCV polymerase (Hepatitis C virus genotype 1a, UniProt P27958); test: HCV NS5B de novo initiation assay, ATP as initiation nucleotide
T2 construct: a particularly preferred RNA polymerases is the HCV NS5B polypeptide
T2 sequence (P27958 2421-3011): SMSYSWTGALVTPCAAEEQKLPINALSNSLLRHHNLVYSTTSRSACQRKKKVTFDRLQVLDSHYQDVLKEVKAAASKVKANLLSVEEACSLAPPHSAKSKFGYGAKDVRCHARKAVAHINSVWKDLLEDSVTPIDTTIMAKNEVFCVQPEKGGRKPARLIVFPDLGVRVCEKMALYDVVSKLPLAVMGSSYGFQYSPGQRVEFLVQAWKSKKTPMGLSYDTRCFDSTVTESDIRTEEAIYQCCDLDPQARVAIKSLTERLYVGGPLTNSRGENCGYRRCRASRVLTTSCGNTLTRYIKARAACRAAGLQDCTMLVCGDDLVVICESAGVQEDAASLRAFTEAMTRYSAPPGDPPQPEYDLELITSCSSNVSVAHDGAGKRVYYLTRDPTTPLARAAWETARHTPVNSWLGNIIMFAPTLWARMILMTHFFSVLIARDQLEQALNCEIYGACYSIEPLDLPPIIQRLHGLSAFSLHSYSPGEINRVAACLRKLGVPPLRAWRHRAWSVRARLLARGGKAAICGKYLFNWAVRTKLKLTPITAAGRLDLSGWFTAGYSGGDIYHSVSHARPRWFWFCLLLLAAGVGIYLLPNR
Procedure: as §1
To further determine whether this inhibitory effect of HCV polymerase is specific for a particular initiation nucleotide, de novo initiation assay was performed using ATP as the initiation nucleotide (template RNA: 5′ AAAAAAAAGU 3′).

[3] = biological target: T2, HCV polymerase; test: GpC dinucleotide-primed RNA synthesis
Text: (§2) It was also observed that certain dinucleotide analogues were able to inhibit dinucleotide-primed RNA synthesis. […] Furthermore, this inhibitory activity is sequence specific. When a different dinucleotide primer (GpG) was used to prime RNA synthesis from the. […] These observations further support the model that base pairing capability between the dinucleotide compound and the template terminal bases is important for achieving sufficient inhibition of HCV polymerase.

[4] = biological target: T2, HCV polymerase; test: GpG dinucleotide-primed RNA synthesis; settings: dinucleotide primer GpG; RNA template 5′ AAAAAAAACC 3′; FIG. 4
Text: as §2

T1 sequence (P27958 2421-3011): as above

| SMILES | IC50 [1] [µM] | IC50 [2] [µM] | IC50 [3] [µM] | inhibition of polymerase activity (GpG-primed RNA synthesis) [4] |
| --- | --- | --- | --- | --- |
| COC1C(OP(O)(=S)OCC2CC(O)C(n3ccc(N)nc3=O)O2)C(COP(=O)(O)O)OC1n1cnc2c(=O)[nH]c(N)nc21 (stereo not shown) [compound A] | 20 | ~90 | 50 | lost the ability to inhibit the polymerase activity |
| COC1[C@@H](COP(O)(=S)OC2[C@@H](COP(=O)(O)O)O[C@@H](n3cnc4c(=O)[nH]c(N)nc43)[C@H]2OC)O[C@@H](n2ccc(N)nc2=O)[C@H]1O (stereo partly shown) [compound B] | 65 |  | ~80 | lost the ability to inhibit the polymerase activity |
